From paper PMC3720659, “Integrated Analysis of Drug-Induced Gene Expression Profiles Predicts Novel hERG Inhibitors” (PLoS ONE, 2013)

Target: T1, hERG channel (Homo sapiens, UniProt Q12809)
Test: not given
Conditions: not given; call rule not given here

T1 sequence (Q12809 whole entry): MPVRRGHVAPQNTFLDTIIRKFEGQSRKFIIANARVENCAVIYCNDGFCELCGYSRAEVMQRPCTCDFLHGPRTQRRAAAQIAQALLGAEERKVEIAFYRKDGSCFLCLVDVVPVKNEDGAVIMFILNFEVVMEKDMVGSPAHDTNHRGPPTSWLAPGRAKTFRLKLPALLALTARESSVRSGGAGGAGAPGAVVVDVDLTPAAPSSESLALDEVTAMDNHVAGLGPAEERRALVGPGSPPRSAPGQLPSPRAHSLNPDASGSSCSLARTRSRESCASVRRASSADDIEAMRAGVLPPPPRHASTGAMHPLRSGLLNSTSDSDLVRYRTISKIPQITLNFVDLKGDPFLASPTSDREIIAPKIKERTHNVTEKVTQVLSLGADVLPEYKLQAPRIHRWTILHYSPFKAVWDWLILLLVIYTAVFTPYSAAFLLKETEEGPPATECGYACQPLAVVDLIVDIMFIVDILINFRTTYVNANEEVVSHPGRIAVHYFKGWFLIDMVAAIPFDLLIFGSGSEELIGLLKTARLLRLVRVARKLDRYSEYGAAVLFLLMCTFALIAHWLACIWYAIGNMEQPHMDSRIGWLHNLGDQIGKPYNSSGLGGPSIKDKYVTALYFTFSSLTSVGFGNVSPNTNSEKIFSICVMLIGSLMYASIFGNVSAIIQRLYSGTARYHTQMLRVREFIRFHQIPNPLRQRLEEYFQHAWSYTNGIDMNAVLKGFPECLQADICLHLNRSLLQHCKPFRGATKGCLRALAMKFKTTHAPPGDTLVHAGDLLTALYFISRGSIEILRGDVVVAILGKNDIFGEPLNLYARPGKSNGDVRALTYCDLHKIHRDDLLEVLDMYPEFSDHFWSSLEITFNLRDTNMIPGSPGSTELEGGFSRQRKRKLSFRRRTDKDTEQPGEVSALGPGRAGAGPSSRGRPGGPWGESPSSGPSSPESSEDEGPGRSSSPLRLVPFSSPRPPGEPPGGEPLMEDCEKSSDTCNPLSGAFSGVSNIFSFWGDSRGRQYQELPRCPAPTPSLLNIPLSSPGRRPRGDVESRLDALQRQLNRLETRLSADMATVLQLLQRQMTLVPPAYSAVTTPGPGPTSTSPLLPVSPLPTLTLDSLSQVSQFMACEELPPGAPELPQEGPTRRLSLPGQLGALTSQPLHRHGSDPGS

Row | Compound | Behaviour during hERG electrophysiology recording
1 | CCCCC(CC)CN1CN(CC(CC)CCCC)CC(C)(N)C1 (stereo not drawn) [Hexetidine] | appears to disrupt the membrane seal during recording

Target: T1, hERG channel
Test: cell-based
Conditions: not given

Row | Compound | IC50
2 | CC(NCCC(c1ccccc1)c1ccccc1)c1ccccc1 (stereo not drawn) [Fendiline, reference compound] | 2600 ± 100 nM
3 | Clc1ccc(C(OCCN2CCCCC2)c2ccccc2)cc1 (stereo not drawn) [Cloperastine] | 360 ± 50 nM

Tested on: hERG current
Test: not given
Conditions: annotation of the drug; Cell Line (HL60, MCF7, PC3) is the cell line of the drug-induced expression profile, not of the hERG assay; ref hERGcentral; cited from earlier work

Row | Compound | Annotation (hERG inhibition class, Active/Inactive by IC50)
4 | CC[N+](C)(CC)CCC[n+]1c(-c2ccccc2)c2cc(N)ccc2c2ccc(N)cc21 [propidium iodide] | Inactive
5 | COc1ccc(C2CNC(=O)C2)cc1OC1CCCC1 (stereo not drawn) [rolipram] | Inactive
6 | CC(O)Cn1cnc2c1c(=O)n(C)c(=O)n2C (stereo not drawn) [proxyphylline] | Inactive
7 | CC(C)N1CCN(c2ccc(OCC3COC(Cn4cncn4)(c4ccc(Cl)cc4Cl)O3)cc2)CC1 (stereo not drawn) [terconazole] | Inactive
8 | NCCc1c[nH]c2ccc(O)cc12 [serotonin] | Inactive

Same assay, conditions: cited from earlier work

Row | Compound | Annotation (hERG Active / Inactive) | hERG inhibition call in the high-throughput electrophysiology assay
9 | OC(c1cc(C(F)(F)F)nc2c(C(F)(F)F)cccc12)C1CCCCN1 (stereo not drawn) [Mefloquine, reference compound] | Inactive | inactive
10 | NNCCc1ccccc1 [phenelzine] | Inactive | –
11 | C=C(C)[C@@H]1[C@H]2OC(=O)[C@@H]1[C@]1(O)C[C@H]3O[C@]34C(=O)O[C@H]2[C@]14C [picrotoxinin] | Inactive | –
12 | C[C@]12CC[C@@H]3c4ccc(O)cc4CC[C@H]3[C@@H]1CC[C@@H]2O [estradiol] | Inactive | –

Same assay, conditions: hERG annotation of the drug; the Cell Line (HL60, MCF7, PC3) names the expression profile, not the hERG test; cited from earlier work

Row | Compound | Annotation (hERG Active / Inactive)
13 | CCCCC[C@H](O)/C=C/[C@@H]1[C@@H](C/C=C\CCCC(=O)O)[C@@H](O)C[C@H]1O [dinoprost] | Inactive
14 | felodipine | Inactive
15 | CC(C)COCC(CN(Cc1ccccc1)c1ccccc1)N1CCCC1 (stereo not drawn) [bepridil] | Active
16 | COc1cc2c(cc1O)C[C@H]1c3c(cc(O)c(OC)c3-2)CCN1C [boldine] | Active
17 | COc1ccc(C(=O)OC2C[C@H]3CC[C@H](C2)N3C)cc1OC (stereo partly drawn) [convolamine] | Inactive
18 | CCN1C[C@]2(COC)CC[C@H](O)[C@]34C1[C@@](O)([C@@H](OC)[C@H]23)[C@@]1(O)C[C@H](OC)[C@H]2C[C@@H]4[C@@H]1[C@H]2OC [delsoline] | Inactive
19 | diphenylpyraline | Inactive
20 | C[C@]12CC[C@H](O)C[C@H]1CC[C@@H]1[C@@H]2C[C@@H](O)[C@]2(C)[C@@H](C3=CC(=O)OC3)CC[C@]12O [digoxigenin] | Inactive
21 | CN(C)CCC=C1c2ccccc2C=Cc2ccccc21 [cyclobenzaprine] | Inactive
22 | CC1=NS(=O)(=O)c2cc(Cl)ccc2N1 [diazoxide] | Inactive
23 | Oc1c(I)cc(Cl)c2cccnc12 [clioquinol] | Inactive
24 | Nc1cc(-c2ccncc2)c[nH]c1=O [amrinone] | Inactive
25 | CN(C)c1nc(N(C)C)nc(N(C)C)n1 [altretamine] | Inactive
26 | C[C@]12CC[C@@H]3c4ccc(OS(=O)(=O)O)cc4CC[C@H]3[C@@H]1CCC2=O [estropipate] | Inactive
27 | O=C1NCC2(CCN(CCc3ccccc3)CC2)O1 [fenspiride] | Inactive
28 | CC(=O)N(O)CCCCCNC(=O)CCC(=O)N(O)CCCCCNC(=O)CCC(=O)N(O)CCCCCN [deferoxamine] | Inactive
29 | C=CC1=C(C(=O)O)N2C(=O)[C@@H](NC(=O)/C(=N\OCC(=O)O)c3csc(N)n3)[C@H]2SC1 [cefixime] | Inactive
30 | doxycycline | Inactive
31 | CC(=O)Oc1ccccc1C(=O)O [acetylsalicylic acid] | Inactive

Same assay, conditions: hERG inhibition annotation of the drug; the Cell Line (HL60, MCF7, PC3) is the cell line of the expression profile, not of the hERG test; cited from earlier work

Row | Compound | Annotation (hERG Active / Inactive)
32 | Clc1ccc(COC(Cn2ccnc2)c2ccc(Cl)cc2Cl)c(Cl)c1 (stereo not drawn) [Miconazole, reference compound] | Inactive
33 | O=C(N/N=C/c1ccc([N+](=O)[O-])o1)c1ccc(O)cc1 [nifuroxazide] | Inactive
34 | COCCc1ccc(OCC(O)CNC(C)C)cc1 (stereo not drawn) [metoprolol] | Inactive
35 | CC(C(=O)O)c1cccc(C(=O)c2ccccc2)c1 (stereo not drawn) [ketoprofen] | Inactive
36 | NC[C@@H]1O[C@H](O[C@H]2[C@@H](O)[C@H](O[C@@H]3[C@@H](O)[C@H](N)C[C@H](N)[C@H]3O[C@H]3O[C@H](CO)[C@@H](O)[C@H](O)[C@H]3N)O[C@@H]2CO)[C@H](N)[C@@H](O)[C@@H]1O [paromomycin] | Inactive
37 | Cc1c(Nc2ncccc2C(=O)O)cccc1C(F)(F)F [flunixin] | Inactive
38 | C=C1C(=O)O[C@H]2[C@H]1CC/C(C)=C/CC[C@@]1(C)O[C@@H]21 [parthenolide] | Inactive
39 | CCCN(CCC)C(=O)C(CCC(=O)O)NC(=O)c1ccccc1 (stereo not drawn) [proglumide] | Inactive
40 | CN(C)CCOC(=O)COc1ccc(Cl)cc1 [meclofenoxate] | Inactive
41 | CNCCC=C1c2ccccc2C=Cc2ccccc21 [norcyclobenzaprine] | Inactive
42 | CCC1(c2cccc(O)c2)CCCCN(C)C1 (stereo not drawn) [meptazinol] | Inactive
43 | OC(CCN1CCCC1)(c1ccccc1)C1CCCCC1 (stereo not drawn) [procyclidine] | Inactive
44 | C1CCC(C(CC2CCCCN2)C2CCCCC2)CC1 (stereo not drawn) [perhexiline] | Inactive
45 | COc1ccccc1OCC(O)CO (stereo not drawn) [guaifenesin] | Inactive
46 | CC(=O)Nc1ccc(OCC(O)CNC(C)C)cc1 (stereo not drawn) [practolol] | Inactive
47 | CCC(Cc1c(I)cc(I)c(N)c1I)C(=O)O (stereo not drawn) [iopanoic acid] | Inactive
48 | O=c1[nH]c(=O)n([C@H]2C[C@H](O)[C@@H](CO)O2)cc1I [idoxuridine] | Inactive
49 | CC(=O)[C@H]1CC[C@H]2[C@@H]3CCC4=CC(=O)CC[C@]4(C)[C@H]3CC[C@]12C [progesterone] | Inactive
50 | C#C[C@]1(O)CC[C@H]2[C@@H]3CCc4cc(OC)ccc4[C@H]3CC[C@@]21C [mestranol] | Inactive
51 | CC(C)(C)NC[C@H](O)COc1ccccc1C1CCCC1 [penbutolol] | Inactive
52 | CC(=O)[C@@]1(O)CC[C@H]2[C@@H]3C[C@H](C)C4=CC(=O)C=C[C@]4(C)[C@@]3(F)[C@@H](O)C[C@@]21C [fluorometholone] | Inactive

Same assay, conditions: inhibitor means 50% or more decrease of hERG current at 10 µM; acute recording; cited from earlier work

Row | Compound | hERG inhibition call in the high-throughput electrophysiology assay
53 | Clc1ccc2c(c1)C(N1CCNCC1)=Nc1ccccc1O2 [Amoxapine, reference compound] | negatives
54 | Clc1ccc(COC(Cn2ccnc2)c2ccc(Cl)cc2Cl)c(Cl)c1 (stereo not drawn) [Miconazole, reference compound] | inactive

Tested on: recombinantly expressed hERG channels
Test: not given
Conditions: cited from earlier work

Row | Compound | Inhibition of hERG channels recombinantly expressed in cell lines
55 | OC(c1cc(C(F)(F)F)nc2c(C(F)(F)F)cccc12)C1CCCCN1 (stereo not drawn) [Mefloquine, reference compound] | inhibit
56 | Clc1ccc(COC(Cn2ccnc2)c2ccc(Cl)cc2Cl)c(Cl)c1 (stereo not drawn) [Miconazole, reference compound] | inhibit

Same assay, conditions: read-out: IC50 for inhibition of the current of recombinantly expressed hERG channels; cited from earlier work

Row | Compound | IC50
57 | CCN(CC)CCOc1ccc(C(=C(Cl)c2ccccc2)c2ccccc2)cc1 [Clomiphene] | 180 nM

Tested on: not given
Test: not given
Conditions: drug on LQT Drug List; the Cell Line (HL60, MCF7, PC3) is the cell line of the expression profile; cited from earlier work

Row | Compound | Annotation (LQT Drug)
58 | OCCN1CCN(CCCN2c3ccccc3Sc3ccc(C(F)(F)F)cc32)CC1 [fluphenazine] | LQT Drug
59 | CC(Cc1ccccc1)NCCC(c1ccccc1)c1ccccc1 (stereo not drawn) [prenylamine] | LQT Drug
60 | Cc1cccc(C)c1OCC(C)N (stereo not drawn) [mexiletine] | LQT Drug
61 | CC(=O)N1CCN(c2ccc(OCC3COC(Cn4ccnc4)(c4ccc(Cl)cc4Cl)O3)cc2)CC1 (stereo not drawn) [ketoconazole] | LQT Drug
62 | COC1=C2C[C@@H](C)C[C@H](OC)[C@H](O)[C@@H](C)/C=C(\C)[C@H](OC(N)=O)[C@@H](OC)/C=C\C=C(/C)C(=O)NC(=CC1=O)C2=O [geldanamycin] | LQT Drug
63 | CNCCC=C1c2ccccc2CCc2ccccc21 [nortriptyline] | LQT Drug
64 | CC1COc2c(N3CCN(C)CC3)c(F)cc3c(=O)c(C(=O)O)cn1c23 (stereo not drawn) [ofloxacin] | LQT Drug
65 | CNCCCC12CCC(c3ccccc31)c1ccccc12 [maprotiline] | LQT Drug
66 | CC1Cc2ccccc2N1NC(=O)c1ccc(Cl)c(S(N)(=O)=O)c1 (stereo not drawn) [indapamide] | LQT Drug

Same assay, conditions: on LQT Drug List; the Cell Line (HL60, MCF7, PC3) names the expression profile; cited from earlier work

Row | Compound | Annotation (LQT Drug)
67 | NC12CC3CC(CC(C3)C1)C2 [amantadine] | LQT Drug
68 | Clc1ccc2c(c1)C(N1CCNCC1)=Nc1ccccc1O2 [Amoxapine, reference compound] | LQT Drug
69 | COc1cc2nc(N(C)CCCNC(=O)C3CCCO3)nc(N)c2cc1OC (stereo not drawn) [alfuzosin] | LQT Drug
70 | CCN(CC)CCCC(C)Nc1ccnc2cc(Cl)ccc12 (stereo not drawn) [chloroquine] | LQT Drug
71 | CNCCCN1c2ccccc2CCc2ccccc21 [desipramine] | LQT Drug
72 | CC(CCc1ccc(O)cc1)NCCc1ccc(O)c(O)c1 (stereo not drawn) [dobutamine] | LQT Drug
73 | CN(C)CCC=C1c2ccccc2CCc2ccccc21 [amitriptyline] | LQT Drug

Same assay, conditions: previous literature; not in the LQT drug lists used; cited from earlier work

Row | Compound | Association with drug-induced LQT
74 | CC(NCCC(c1ccccc1)c1ccccc1)c1ccccc1 (stereo not drawn) [Fendiline, reference compound] | drug-induced LQT
